According to BindingDB's records for doi:10.1016/j.bmc.2005.05.065 (National Taiwan University, 2005):

Target: Replicase polyprotein 1ab (Severe acute respiratory syndrome coronavirus, UniProt P0C6X7)
Assay: SARS-CoV 3CL Protease Inhibition Assay
Settings: pH 7; 25 °C
Description: The effects of compound on enzyme activity were measured by using a fluorogenic peptide cleavage assay. Enhanced fluorescence caused by cleavage of the substrate peptide was monitored at 538 nm with excitation at 355 nm. The Ki measurements were performed at two fixed inhibitor concentrations and various substrate concentrations.

CCOC(=O)/C=C/[C@H](C[C@@H]1CCNC1=O)NC(=O)[C@@H](CC(=O)[C@@H](NC(=O)c1cc(C)on1)C(C)C)Cc1ccc(F)cc1 [ethyl (2E,4S)-4-[((2R,5S)-2-(4-fluorobenzyl)-6-methyl-5-{[(5-methylisoxazol-3-yl)carbonyl]amino}-4-oxoheptanoyl)amino]-5-[(3S)-2-oxopyrrolidin-3-yl]pent-2-enoate] was tested, and the IC50 was > 100 µM.
